“And” between values parts separate entries of the source, which are not always exact repeats. Equal values may be shown once. Toxic doses and inconclusive results are not listed. No stated cut-off is given here; in the data, active means T/C of 150% or more; inactive means T/C below 125%.
Tested on: L1210 leukemia ip in BDF1 mice, survival T/C
Assay: NCI In Vivo Anticancer Drug Screen. Data for tumor model L1210 Leukemia (intraperitoneal) in B6D2F1 (BDF1) mice
Details: endpoint: mean survival time, higher = longer survival
In short: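 Each compound was tested against a transplantable tumor grown in mice. The endpoint was survival, with treated animals benchmarked against vehicle controls as a simple ratio.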

[1] = dose: 100.0 mg/kg/injection, schedule: Q01DX001 (ip), vehicle: saline
[2] = dose: 200.0 mg/kg/injection, schedule: Q01DX001 (ip), vehicle: saline
[3] = dose: 400.0 mg/kg/injection, schedule: Q01DX001 (ip), vehicle: saline
[4] = dose: 100.0 mg/kg/injection, schedule: Q04DX003 (ip), vehicle: saline with Tween-80
[5] = dose: 200.0 mg/kg/injection, schedule: Q04DX003 (ip), vehicle: saline with Tween-80
[6] = dose: 400.0 mg/kg/injection, schedule: Q04DX003 (ip), vehicle: saline with Tween-80
[7] = dose: 100.0 mg/kg/injection, schedule: Q01DX001 (ip), vehicle: Klucel (hydroxypropylcellulose) (HPC)
[8] = dose: 100.0 mg/kg/injection, schedule: Q04DX003 (ip), vehicle: saline
[9] = dose: 100.0 mg/kg/injection, schedule: Q01DX009 (ip), vehicle: saline with Tween-80
[10] = dose: 100.0 mg/kg/injection, schedule: Q01DX009 (ip), vehicle: Klucel (hydroxypropylcellulose) (HPC)
[11] = dose: 200.0 mg/kg/injection, schedule: Q01DX009 (ip), vehicle: Klucel (hydroxypropylcellulose) (HPC)
[12] = dose: 100.0 mg/kg/injection, schedule: Q04DX003 (ip), vehicle: Klucel (hydroxypropylcellulose) (HPC)
[13] = dose: 200.0 mg/kg/injection, schedule: Q04DX003 (ip), vehicle: Klucel (hydroxypropylcellulose) (HPC)
[14] = dose: 50.0 mg/kg/injection, schedule: Q01DX001 (ip), vehicle: carboxymethylcellulose (CMC)
[15] = dose: 100.0 mg/kg/injection, schedule: Q01DX001 (ip), vehicle: carboxymethylcellulose (CMC)
[16] = dose: 200.0 mg/kg/injection, schedule: Q01DX001 (ip), vehicle: carboxymethylcellulose (CMC)

Measured: T/C

C(=N\N(CCCCN(/N=C/c1ccccc1)c1ccccc1)c1ccccc1)/c1ccccc1
inactive: dose: 12.5 mg/kg/injection, schedule: Q01DX009 (ip), vehicle: gum acacia 111 % of control | dose: 25.0 mg/kg/injection, schedule: Q01DX009 (ip), vehicle: gum acacia 96 % of control | dose: 50.0 mg/kg/injection, schedule: Q01DX001 (ip), vehicle: saline 96 % of control | dose: 50.0 mg/kg/injection, schedule: Q01DX009 (ip), vehicle: gum acacia 92 % of control | [1] 104 % of control | dose: 100.0 mg/kg/injection, schedule: Q04DX003 (ip), vehicle: gum acacia 94 % of control | [2] 91 % of control | dose: 200.0 mg/kg/injection, schedule: Q01DX009 (ip), vehicle: gum acacia 87 % of control | dose: 200.0 mg/kg/injection, schedule: Q04DX003 (ip), vehicle: gum acacia 89 % of control | [3] 98 % of control | dose: 400.0 mg/kg/injection, schedule: Q01DX009 (ip), vehicle: gum acacia 86 % of control | dose: 400.0 mg/kg/injection, schedule: Q04DX003 (ip), vehicle: gum acacia 91 % of control

COc1ccc(/C=N/n2c(=O)[nH]nc(C)c2=O)c(OC)c1OC
inactive: dose: 100.0 mg/kg/injection, schedule: Q01DX009 (ip), vehicle: acetone 96 % of control | [4] 112 % of control | dose: 200.0 mg/kg/injection, schedule: Q01DX009 (ip), vehicle: acetone 93 % of control | [5] 117 % of control | dose: 400.0 mg/kg/injection, schedule: Q01DX009 (ip), vehicle: acetone 102 % of control | [6] 109 % of control

Cc1c(N)cc([N+](=O)[O-])c(C)c1[N+](=O)[O-]
inactive: dose: 50.0 mg/kg/injection, schedule: Q04DX003 (ip), vehicle: saline with Tween-80 100 % of control | [4] 96 % of control | [5] 100 % of control

Cc1ccc2cc(N(C)C)ccc2[n+]1C
inactive: dose: 3.13 mg/kg/injection, schedule: Q04DX003 (ip), vehicle: saline 101 % of control | dose: 6.25 mg/kg/injection, schedule: Q04DX003 (ip), vehicle: saline 106 % of control | dose: 12.5 mg/kg/injection, schedule: Q04DX003 (ip), vehicle: saline 96 % of control and 109 % of control

COC(=O)Nc1ccccc1
inactive: [7] 97 % of control | dose: 100.0 mg/kg/injection, schedule: Q04DX002 (ip), vehicle: gum acacia 113 % of control | dose: 200.0 mg/kg/injection, schedule: Q01DX001 (ip), vehicle: Klucel (hydroxypropylcellulose) (HPC) 98 % of control | dose: 200.0 mg/kg/injection, schedule: Q04DX002 (ip), vehicle: gum acacia 100 % of control | dose: 400.0 mg/kg/injection, schedule: Q01DX001 (ip), vehicle: Klucel (hydroxypropylcellulose) (HPC) 101 % of control | dose: 400.0 mg/kg/injection, schedule: Q04DX002 (ip), vehicle: gum acacia 103 % of control

CN1CCC(=C(C#N)C#N)CC1
inactive: [8] 91 % of control

COC(=N)c1ccc(Cl)cc1
inactive: [9] 88 % of control | dose: 200.0 mg/kg/injection, schedule: Q01DX009 (ip), vehicle: saline with Tween-80 93 % of control

COc1ccc(C)cc1NC(=O)C1CC1
inactive: [10] 103 % of control | [11] 113 % of control | dose: 400.0 mg/kg/injection, schedule: Q01DX009 (ip), vehicle: Klucel (hydroxypropylcellulose) (HPC) 104 % of control

CCN=C(Nc1ccc(C(=NC)NCC)cc1)c1ccc(C(=NCC)Nc2ccc(C(=NC)NCC)cc2)cc1
inactive: dose: 0.5 mg/kg/injection, schedule: Q01DX Z (ip), vehicle: saline 97 % of control | dose: 0.8 mg/kg/injection, schedule: Q01DX Z (ip), vehicle: saline 97 % of control | dose: 1.2 mg/kg/injection, schedule: Q01DX Z (ip), vehicle: saline 97 % of control | dose: 1.77 mg/kg/injection, schedule: Q01DX Z (ip), vehicle: saline 97 % of control and 89 % of control | dose: 2.66 mg/kg/injection, schedule: Q01DX Z (ip), vehicle: saline 93 % of control | dose: 4.0 mg/kg/injection, schedule: Q01DX Z (ip), vehicle: saline 96 % of control

CC(=O)Oc1c(C2CCCCC2)cc([N+](=O)[O-])cc1[N+](=O)[O-]
inactive: [12] 94 % of control | [13] 101 % of control

O=C(Nc1ccc2cc(S(=O)(=O)O)ccc2c1)c1ccc(N=Nc2c(S(=O)(=O)O)cc3cc(S(=O)(=O)O)cc(NC(=O)c4ccccc4)c3c2O)cc1
inactive: dose: 25.0 mg/kg/injection, schedule: Q01DX001 (ip), vehicle: Klucel (hydroxypropylcellulose) (HPC) 93 % of control | dose: 25.0 mg/kg/injection, schedule: Q01DX009 (ip), vehicle: other 108 % of control | dose: 25.0 mg/kg/injection, schedule: Q04DX003 (ip), vehicle: Klucel (hydroxypropylcellulose) (HPC) 95 % of control | dose: 50.0 mg/kg/injection, schedule: Q01DX001 (ip), vehicle: Klucel (hydroxypropylcellulose) (HPC) 88 % of control | dose: 50.0 mg/kg/injection, schedule: Q01DX009 (ip), vehicle: other 102 % of control | dose: 50.0 mg/kg/injection, schedule: Q04DX003 (ip), vehicle: Klucel (hydroxypropylcellulose) (HPC) 98 % of control | [7] 92 % of control | dose: 100.0 mg/kg/injection, schedule: Q01DX009 (ip), vehicle: other 97 % of control | [12] 101 % of control | [4] 104 % of control | dose: 150.0 mg/kg/injection, schedule: Q01DX009 (ip), vehicle: other 89 % of control | [5] 91 % of control

CCCC(=O)Nc1ccc(Cl)c(Cl)c1
inactive: [4] 98 % of control | [5] 102 % of control | [6] 89 % of control

CN1CN(c2ccccc2)CSC1=S
inactive: dose: 50.0 mg/kg/injection, schedule: Q01DX009 (ip), vehicle: Klucel (hydroxypropylcellulose) (HPC) 102 % of control | [10] 107 % of control | [12] 94 % of control | [11] 95 % of control | [13] 89 % of control

COc1ncnc2c1ncn2-c1cccc(C)c1
inactive: [14] 104 % of control | [15] 98 % of control | [16] 104 % of control | dose: 400.0 mg/kg/injection, schedule: Q01DX001 (ip), vehicle: carboxymethylcellulose (CMC) 104 % of control

CC(c1ccccc1)c1ccc(O)cc1 (centres undefined)
inactive: dose: 100.0 mg/kg/injection, schedule: Q01DX009 (ip), vehicle: saline sonified 97 % of control | dose: 200.0 mg/kg/injection, schedule: Q01DX009 (ip), vehicle: saline sonified 95 % of control | dose: 400.0 mg/kg/injection, schedule: Q01DX009 (ip), vehicle: saline sonified 97 % of control

Cc1ccc(N(C)C(=O)c2ccccc2S)cc1
inactive: [1] 105 % of control | [2] 105 % of control | [3] 109 % of control

C/C=C/C(=O)Nc1ccccc1
inactive: [14] 97 % of control | [15] 100 % of control | [16] 113 % of control

COP(=S)(OC)N1CC1
inactive: dose: 11.1 mg/kg/injection, schedule: Q01DX Z (ip), vehicle: saline 108 % of control | dose: 16.6 mg/kg/injection, schedule: Q01DX Z (ip), vehicle: saline 100 % of control | dose: 25.0 mg/kg/injection, schedule: Q01DX Z (ip), vehicle: saline 100 % of control

COc1ccccc1OC(=O)CCl
inactive: dose: 25.0 mg/kg/injection, schedule: Q01DX009 (ip), vehicle: saline with Tween-80 90 % of control | dose: 50.0 mg/kg/injection, schedule: Q01DX009 (ip), vehicle: saline with Tween-80 93 % of control | [9] 93 % of control

CS(=O)(=O)O
inactive: dose: 100.0 mg/kg/injection, schedule: Q01DX009 (ip), vehicle: saline 102 % of control | [8] 108 % of control | dose: 200.0 mg/kg/injection, schedule: Q01DX009 (ip), vehicle: saline 93 % of control | dose: 200.0 mg/kg/injection, schedule: Q04DX003 (ip), vehicle: saline 98 % of control | dose: 400.0 mg/kg/injection, schedule: Q01DX009 (ip), vehicle: saline 100 % of control | dose: 400.0 mg/kg/injection, schedule: Q04DX003 (ip), vehicle: saline 109 % of control
